In ChEMBL document CHEMBL1158752, “Microbial transformation of 20(S)-protopanaxatriol by Mucor spinosus” (J Nat Prod, 2005):

How the values were obtained:
[1] = system: BGC-823 (human); assay: Cytotoxicity against human BGC823 cells after 48 hrs by MTT assay; details: BGC-823, 48 h
[2] = system: HL-60 (human); assay: Cytotoxicity against human HL60 cells after 48 hrs by MTT assay; details: HL-60, 48 h

C/C(=C\CC[C@](C)(O)[C@H]1CC[C@]2(C)[C@H]1[C@H](O)C[C@@H]1[C@@]3(C)CC[C@H](O)C(C)(C)[C@@H]3[C@@H](O)C[C@]12C)CO
IC50 [1]: > 100 µM
IC50 [2]: 12.3 µM

C/C(=C/CC[C@](C)(O)[C@H]1CC[C@]2(C)[C@H]1C(=O)C[C@@H]1[C@@]3(C)CC[C@H](O)C(C)(C)[C@@H]3[C@@H](O)C[C@]12C)CO
IC50 [1]: > 100 µM
IC50 [2]: 10.8 µM

C/C(=C\CC[C@](C)(O)[C@H]1CC[C@]2(C)[C@H]1C(=O)C[C@@H]1[C@@]3(C)CC[C@H](O)C(C)(C)[C@@H]3[C@@H](O)C[C@]12C)CO
IC50 [1]: > 100 µM
IC50 [2]: 16.3 µM

CC(C)=CCC[C@](C)(O)[C@H]1C[C@H](O)[C@]2(C)[C@H]1C(=O)C[C@@H]1[C@@]3(C)CC[C@H](O)C(C)(C)[C@@H]3[C@@H](O)C[C@]12C
IC50 [1]: > 100 µM
IC50 [2]: 15 µM

CC(C)=CCC[C@](C)(O)[C@H]1CC[C@]2(C)[C@@H]1[C@H](O)C[C@@H]1[C@@]3(C)CC[C@H](O)C(C)(C)[C@@H]3[C@@H](O)C[C@]12C
IC50 [2]: 16 µM
